The assay concerns the target T1, α-glucosidase (EC 3.2.1.20) from Saccharomyces cerevisiae (Saccharomyces cerevisiae, UniProt P53341).
T1 construct: purchased Sigma Chemical Co., St. Louis, USA
Put plainly: biochemical. The note with it: mean of quadruplet experiments ± SEM, from Dixon plots, pH 6.8, 37 °C. The class given is biochemical. Here is the method:
All in vitro α-glucosidase inhibition assays were performed in a 96-well microplate format. The α-glucosidase inhibition assay reported elsewhere was customized to suit the experimental needs of the current work. The assay mixture contained 50 mM sodium phosphate buffer (pH 6.8), 20 mU of α-glucosidase (EC 3.2.1.20) from Saccharomyces cerevisiae (Sigma Chemical Co., St. Louis, USA), and 1.0 mM of p-nitrophenyl-α-D-glucopyranoside (PNP-G) substrate. All target compounds were dissolved in DMSO with the assay mixture containing DMSO at a final concentration of 3%. […] The reaction was continuously monitored at 400 nm in SpectraMax Plus 384® microplate reader (Molecular Devices, CA, USA). […] All assays were performed as four individual experiments out of which the values of mean and standard error of mean (SEM) were calculated.
The enzyme kinetics assay procedure was essentially the same as mentioned above except that it was specifically designed for the kinetic work. […] The type of inhibition was calculated from the Lineweaver-Burk plots which was further confirmed by the Dixon plot using Grafit 7.0.3 software (Erithacus Software Ltd., Staines, UK). The Ki values were also calculated from their respective Dixon plots. All kinetic experiments were conducted in quadruplicate from which mean Ki values and the SEM were calculated.

“Also recorded” adds a separate entry of the source. Where two headings read alike, the source gives them in different places.

T1 sequence (P53341 whole entry): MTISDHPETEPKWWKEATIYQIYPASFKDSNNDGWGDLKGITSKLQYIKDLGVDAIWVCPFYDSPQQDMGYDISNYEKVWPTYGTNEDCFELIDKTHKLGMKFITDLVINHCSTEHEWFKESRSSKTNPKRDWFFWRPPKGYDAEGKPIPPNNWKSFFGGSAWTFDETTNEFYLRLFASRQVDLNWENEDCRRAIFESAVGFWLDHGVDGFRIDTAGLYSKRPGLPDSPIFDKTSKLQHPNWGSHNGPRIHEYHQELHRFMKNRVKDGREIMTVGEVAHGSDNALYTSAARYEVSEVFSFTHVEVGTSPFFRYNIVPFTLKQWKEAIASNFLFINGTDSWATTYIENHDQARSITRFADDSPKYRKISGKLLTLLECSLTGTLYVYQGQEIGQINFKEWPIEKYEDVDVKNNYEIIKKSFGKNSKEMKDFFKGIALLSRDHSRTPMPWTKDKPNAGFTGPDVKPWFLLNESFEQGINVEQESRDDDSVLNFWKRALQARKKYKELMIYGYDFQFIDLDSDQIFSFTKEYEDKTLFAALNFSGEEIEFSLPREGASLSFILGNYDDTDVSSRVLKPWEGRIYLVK

As to `CN(C)CCCN1CCN(C(=S)SCCCC(=O)c2ccc(Cl)cc2)CC1` [PC1], the Ki (read-out: Ki) amounted to 5.75 ± 0.2 µM.

Turning to `CN(C)CCCN1CCN(C(=S)SCCC(=O)c2ccccc2)CC1` [PC9], the Ki entry is “no inhibitory activity; also recorded: Inactive”.

Source of the values: publication PMC10390107, “The 4-(dimethylaminoalkyl)piperazine inhibitors of α-glucosidase: allosteric enzyme inhibition and identification of interacting chemical groups” (Turkish Journal of Chemistry, 2022).
